Laboratory results reported in patent US20070060604A1, “Antibiotic pharmaceutical composition with lysergol as bio-enhancer and method of treatment” (COUNCIL OF SCIENTIFIC AND INDUSTRIAL RESEARCH, priority 2002, published 2007).

Key:
[1] = system: Bacillus subtilis (ATCC 6051); assay: Broth assay of killing action of antibiotic alone and with lysergol (viable cell count); details: B. subtilis; antibiotic 0.4 μg/ml
[2] = system: Mycobacterium smegmatis (ATCC 14468); assay: as above; details: M. smegmatis; antibiotic 0.2 μg/ml
[3] = system: Escherichia coli (ATCC 10536); assay: as above; details: E. coli
bacteria = assay: Growth of bacteria in presence of lysergol alone; assay type: cell-based; details: bacteria grown in presence of lysergol alone
Text: 1. […] Process for the Isolation of Lysergol

SMILES	Survival fraction of viable cells upon treatment with antibiotic alone [1]	Survival fraction of viable cells upon treatment with antibiotic alone [2]	Survival fraction of viable cells upon treatment with antibiotic alone ([3]; antibiotic 10 μg/ml)	Survival fraction of viable cells upon treatment with antibiotic alone ([3]; antibiotic 20 μg/ml)	Killing of bacteria by the compound as such (bacteria)
CO[C@H]1/C=C/O[C@@]2(C)Oc3c(C)c(O)c4c(O)c(c(/C=N/N5CCN(C)CC5)c(O)c4c3C2=O)NC(=O)/C(C)=C\C=C\[C@H](C)[C@H](O)[C@@H](C)[C@@H](O)[C@@H](C)[C@H](OC(C)=O)[C@@H]1C [Rifampicin]	0.085-0.096	0.45-0.54	0.35-0.45	0.25-0.30	
CN1C[C@H](CO)C=C2c3cccc4[nH]cc(c34)C[C@H]21 [lysergol, 9,10-Didehydro-6-methylergoline-8-[…]-methanol]					no significant killing
